Experimental data: ChEMBL document CHEMBL3232736, “Antiproliferative activities of halogenated thieno[3,2-d]pyrimidines” (Bioorg Med Chem, 2014)
In brackets after ≈: the same amount, converted by molar mass. Activity calls are given as the source filed them. The calls are words filed in the database; no cut-off is given here.

Experiments:
CCRF-CEM = assay: Cytotoxicity against human CCRF-CEM cells assessed as reduction in cell number after 72 hrs by cell counting assay; assay type: functional, cell-based
HeLa [1] = assay: Cytotoxicity against human HeLa cells assessed as reduction in cell number after 72 hrs by cell counting assay; assay type: functional, cell-based
L1210 = assay: Cytotoxicity against mouse L1210 cells assessed as reduction in cell number after 48 hrs by cell counting assay; assay type: functional, cell-based; settings: L1210, 48 h
Cryptococcus neoformans [2] = assay: Antifungal activity against Cryptococcus neoformans JEC20 assessed as growth inhibition at 100 uM after 48 hrs by microbroth dilution method; assay type: functional
Cryptococcus neoformans [3] = assay: Antifungal activity against Cryptococcus neoformans VANC-R265 assessed as growth inhibition at 100 uM after 48 hrs by microbroth dilution method; assay type: functional
Cryptococcus neoformans [4] = assay: Antifungal activity against Cryptococcus neoformans B4546 assessed as growth inhibition at 100 uM after 48 hrs by microbroth dilution method; assay type: functional
Candida albicans = assay: Antifungal activity against Candida albicans ATCC 10231 assessed as growth inhibition at 100 uM after 16 to 20 hrs by microbroth dilution method; assay type: functional
Bacillus spizizenii = assay: Antibacterial activity against Bacillus subtilis ATCC 6633 assessed as growth inhibition at 100 uM after 16 to 20 hrs by microbroth dilution method; assay type: functional
HEL = assay: Cytotoxicity against human HEL cells assessed as reduction in cell number by cell counting assay; assay type: functional
Vero = assay: Cytotoxicity against African green monkey Vero cells assessed as reduction in cell number; assay type: cell-based; settings: chlorocebus sabaeus
Staphylococcus aureus = assay: Antibacterial activity against methicillin-resistant Staphylococcus aureus subsp. aureus ATCC 43300 assessed as growth inhibition at 100 uM after 16 to 20 hrs by microbroth dilution method; assay type: functional, organism-based
HeLa [5] = assay: Cytotoxicity against human HeLa cells assessed as reduction in cell number; assay type: functional
Cryptococcus neoformans [6] = assay: Antifungal activity against Cryptococcus neoformans ATCC 66031 assessed as growth inhibition at 100 uM after 48 hrs by microbroth dilution method; assay type: functional
Escherichia coli = assay: Antibacterial activity against Escherichia coli ATCC 25922 assessed as growth inhibition at 100 uM after 16 to 20 hrs by microbroth dilution method; assay type: functional, organism-based

| SMILES | IC50 (CCRF-CEM) [µM] | IC50 (HeLa [1]) [µM] | IC50 (L1210) [µM] | further results |
| --- | --- | --- | --- | --- |
| Clc1nc(-n2cncn2)c2scc(Br)c2n1 | 84 | 116 | 157 | – |
| O=c1[nH]c(=O)c2scc([C@H]3C[C@H](O)[C@@H](CO)O3)c2[nH]1 | > 250 | > 250 | > 250 | – |
| Nc1nc(Cl)nc2ccsc12 | > 250 | > 250 | > 250 | – |
| O=c1[nH]cc(F)c(=O)[nH]1 [FLUOROURACIL] | – | – | 0.33 | – |
| COc1nc(OC)c2scc([C@H]3CC(=O)[C@@H](CO)O3)c2n1 | > 250 | > 250 | > 250 | – |
| O=c1[nH]c(=O)c2sccc2[nH]1 | > 250 | > 250 | > 250 | – |
| COc1nc(OC)c2scc(Br)c2n1 | ≥ 250 | 203 | > 250 | – |
| Clc1nc(Cl)c2[nH]ccc2n1 | 25 | 19 | 6.8 | inhibition (Cryptococcus neoformans [2]): inactive; inhibition (Cryptococcus neoformans [3]): inactive; inhibition (Cryptococcus neoformans [4]): inactive; inhibition (Candida albicans): inactive; inhibition (Bacillus spizizenii): inactive; MIC99 (HEL): 20 µM (≈ 3.76 µg/mL); MIC99 (Vero): >= 20 uM; inhibition (Staphylococcus aureus): inactive; MIC99 (HeLa [5]): 20 µM (≈ 3.76 µg/mL); inhibition (Cryptococcus neoformans [6]): inactive; inhibition (Escherichia coli): inactive |
